Measured values as given in publication PMC8284440, “Toward New Transmission-Blocking Combination Therapies: Pharmacokinetics of 10-Amino-Artemisinins and 11-Aza-Artemisinin and Comparison with Dihydroartemisinin and Artemether” (Antimicrobial Agents and Chemotherapy, 2021).
Where two headings read alike, the source gives them in different places.

Tests used:
P. falciparum TM91-C235 = test system: P. falciparum TM91-C235; design: method as in ref 5 (supplement; main text 63); details: CQ and mefloquine resistant; ref 5 (supplement; main text 63); read-out: Antimalarial activities IC50 TM91-C235; cited from earlier work
P. falciparum TM-C2B = test system: P. falciparum TM-C2B; design: method as in ref 5 (supplement; main text 63); details: atovaquone and CQ resistant; ref 5 (supplement; main text 63); read-out: Antimalarial activities IC50 TM-C2B; cited from earlier work
P. falciparum TM93-C1088 = test system: P. falciparum TM93-C1088; design: method as in ref 5 (supplement; main text 63); details: atovaquone and CQ resistant; ref 5 (supplement; main text 63); read-out: Antimalarial activities IC50 TM93-C1088; cited from earlier work
P. falciparum 7G8 = test system: P. falciparum 7G8; design: method as in ref 5 (supplement; main text 63); details: CQ resistant; ref 5 (supplement; main text 63); read-out: Antimalarial activities IC50 7G8; cited from earlier work
P. falciparum W2 [1] = test system: P. falciparum W2; design: method as in ref 1 and 2 (supplement; main text 47, 48); details: Table S1, ± SEM; ref 1 and 2 (supplement; main text 47, 48); cited from earlier work
P. falciparum NF54 [2] = test system: P. falciparum NF54; design: method as in ref 1 and 2 (supplement; main text 47, 48); details: Table S1, ± SEM; ref 1 and 2 (supplement; main text 47, 48); cited from earlier work
[3] = Preliminary PK assessment in the murine model (toxicity); assay type: in vivo
Description: Overall, artemiside, artemisone, and the arylurea are the frontrunners in terms of global efficacies and relatively low toxicities in vitro. However, expression of therapeutic efficacy depends not only on biological activity but also on pharmacokinetic (PK) properties. This becomes important for the envisaged drug combinations ([67]). We report here on the in vitro absorption, distribution, metabolism, and excretion (ADME) properties and PK measurement in a murine model of the compounds of Fig. 2. […] The data are directly compared to those of DHA and artemether. An evaluation of the compounds to be taken forward is then presented.

P. falciparum K1 [4] = test system: P. falciparum K1; design: method as in ref 1 and 2 (supplement; main text 47, 48); details: Table S1, ± SEM; ref 1 and 2 (supplement; main text 47, 48); cited from earlier work
[5] = test system: early stage (>90% stage I-III) P. falciparum NF54 gametocytes; details: cited from earlier work
[6] = test system: Chinese hamster ovary (CHO) cells; details: cited from earlier work
[7] = test system: late stage (>90% stage IV and V) P. falciparum NF54 gametocytes; details: cited from earlier work
P. falciparum D6 = test system: P. falciparum D6; design: method as in ref 5 (supplement; main text 63); details: CQ sensitive; ref 5 (supplement; main text 63); read-out: Antimalarial activities IC50 D6; cited from earlier work
P. falciparum W2 [8] = test system: P. falciparum W2; design: method as in ref 5 (supplement; main text 63); details: CQ resistant; ref 5 (supplement; main text 63); read-out: Antimalarial activities IC50 W2; cited from earlier work
[9] = design: method as in PMID 25759576; details: p.o., mouse; cited from earlier work
[10] = design: method as in PMID 25759576; details: i.v., mouse; cited from earlier work
HepG2 = details: cited from earlier work
[11] = test system: liver stage P. berghei ANKA GFP-Luc-SMcon sporozoites; design: method as in ref 2 (supplement; main text 48); details: ref 2 (supplement; main text 48), cited from earlier work; for IC50: 48 h, ± SD
P. falciparum K1 [12] = test system: P. falciparum K1; design: method as in ref 4 (supplement; main text 62); details: Table S2, ± SEM; ref 4 (supplement; main text 62); read-out: Antimalarial activities IC50 K1; cited from earlier work
P. falciparum W2 [13] = test system: P. falciparum W2; design: method as in ref 4 (supplement; main text 62); details: Table S2, ± SEM; ref 4 (supplement; main text 62); read-out: Antimalarial activities IC50 W2; cited from earlier work
P. falciparum NF54 [14] = test system: P. falciparum NF54; design: method as in ref 4 (supplement; main text 62); details: Table S2, ± SEM; ref 4 (supplement; main text 62); read-out: Antimalarial activities IC50 NF54; cited from earlier work
murine cerebral malaria = test system: murine cerebral malaria; design: method as in PMID 20691118; details: prescribed low dose levels; cited from earlier work
[15] = Table S3, ± SEM, ref 1 and 2 (supplement; main text 47, 48), read-out: Early Stage (EG, Luc 48 h) IC50
[16] = Table S3, ± SEM, ref 1 and 2 (supplement; main text 47, 48), read-out: Late Stage (LG, Luc 72 h) IC50

For OC(c1cc(C(F)(F)F)nc2c(C(F)(F)F)cccc12)C1CCCCN1 (stereo not drawn) [Mefloquine MFQ, Mefloquine], the IC50 (P. falciparum TM91-C235) is given as 107 ± 41 nM, the IC50 (P. falciparum TM-C2B) is given as 130 ± 51 nM and the IC50 (P. falciparum TM93-C1088) is given as 16 ± 5 nM. For the same molecule, the IC50 (P. falciparum 7G8) was 5.4 ± 1.7 nM.

For C[C@H]1[C@H](Nc2ccc(F)cc2)O[C@@H]2O[C@@]3(C)CC[C@H]4[C@H](C)CC[C@@H]1[C@@]24OO3 [Arylamine 8], the IC50 (P. falciparum W2 [1]) is given as 3 ± 1 nM, the IC50 (P. falciparum NF54 [2]) is given as 1.3 ± 0.6 nM and the “Toxicity in preliminary PK assessment” value [3] is given as “untoward toxicity”. For the same molecule, the IC50 (P. falciparum K1 [4]) was 0.64 ± 0.1 nM, the IC50 [5, 15] was 38.2 ± 9 nM and the EC50 ([6]; read-out: Cytotoxicity EC50 CHO, MTT, ±SD, ref 1 and 2 (supplement; main text 47, 48)) was 2900 ± 1400 nM. The IC50 [7, 16] was 16.4 ± 6.38 nM.

In the case of CCN(CC)CCCC(C)Nc1ccnc2cc(Cl)ccc12 (stereo not drawn) [Chloroquine], the IC50 (P. falciparum NF54 [2]) is given as 10 ± 3 nM, the IC50 (P. falciparum TM91-C235) is given as 70 ± 12 nM and the IC50 (P. falciparum TM-C2B) is given as 95 ± 23 nM. The IC50 (P. falciparum TM93-C1088) was 360 ± 38 nM, the IC50 (P. falciparum D6) was 16 ± 2 nM and the IC50 (P. falciparum K1 [4]) was 154 ± 14 nM. The IC50 (P. falciparum 7G8) was 84 ± 18 nM and the IC50 (P. falciparum W2 [8]) was 195 ± 70 nM.

For COc1cc(C)c2c(Oc3cccc(C(F)(F)F)c3)c(OC)cc(NC(C)CCCN)c2n1 (stereo not drawn) [Tafenoquine], the AUC [9] is given as 11,368 ± 1,232 min/μmol/liter, the Cmax [9] is given as 3.06 ± 0.37 µM and the F [9] is given as 55 ± 2%. For the same molecule, the Tmax [9] was 9.0 ± 1.0 h, the AUC [10] was 2,363 ± 146 min/μmol/liter and the CLint [10] was 1.84 mL/min/kg. The V [10] was 2.34 ± 0.0 L/kg and the t1/2 [10] was 43.7 ± 1.5 h.

In the case of O=C1C(O)=C([C@H]2CC[C@H](c3ccc(Cl)cc3)CC2)C(=O)c2ccccc21 [Atovaquone], the EC50 (HepG2) is listed as > 250 nM, the IC50 (P. falciparum TM91-C235) is listed as 2.2 ± 0.7 nM and the IC50 (P. falciparum TM-C2B) is listed as 31800 nM. The IC50 (P. falciparum TM93-C1088) was 18800 nM, the IC50 [11] was 2.52 ± 0.997 nM and the Maximum inhibition % ([11]; at 0.5 µM) was 94.85±2.76%. The IC50 (P. falciparum 7G8) was 3.1 ± 0.9 nM.

For COc1ccc(C[C@H](N)C(=O)N[C@H]2[C@@H](O)[C@H](n3cnc4c(N(C)C)ncnc43)O[C@@H]2CO)cc1 [Puromycin], the EC50 (HepG2) is given as 117 nM, the IC50 [11] is given as 22.7 ± 4.53 nM and the Maximum inhibition % ([11]; at 5 µM) is given as 110±4.24%.

In the case of CN(C)c1ccc2nc3ccc(=[N+](C)C)cc-3sc2c1 [Methylene Blue, reference compound], the IC50 (P. falciparum W2 [1]) is listed as 5.13 ± 0.31 nM, the IC50 (P. falciparum NF54 [2]) is listed as 5 ± 0.8 nM and the IC50 (P. falciparum K1 [4]) is listed as 6.45 ± 0.3 nM. For the same molecule, the IC50 [5, 15] was 95 nM, the EC50 [6] was 52600 ± 4500 nM and the IC50 [7, 16] was 143 nM.

In the case of C[C@H]1[C@H](OC(=O)CCC(=O)O)O[C@@H]2O[C@@]3(C)CC[C@H]4[C@H](C)CC[C@@H]1[C@@]24OO3 [Artesunate 4, artesunate], the IC50 (P. falciparum K1 [12]) is given as 3.26 ± 0.2 nM, the IC50 (P. falciparum TM91-C235) is given as 2.9 ± 1.4 nM and the IC50 (P. falciparum TM-C2B) is given as 2.5 ± 0.5 nM. The IC50 (P. falciparum W2 [13]) was 2.4 ± 0.2 nM, the IC50 (P. falciparum TM93-C1088) was 1.4 ± 0.1 nM and the IC50 (P. falciparum NF54 [14]) was 3 ± 0.29 nM. The IC50 ([5]; Table S4, ± SEM, n = 3, ref 4 (supplement; main text 62), read-out: Early stage IC50 (Luciferase 48 h)) was 62.8 ± 3.14 nM, the IC50 (P. falciparum 7G8) was 1.5 ± 0.2 nM and the “Cure of murine cerebral malaria” value (murine cerebral malaria) was “no cure”. For the same molecule, the IC50 (P. falciparum W2 [8]) was 3 ± 1.6 nM and the IC50 ([7]; Table S4, n = 1, ref 4 (supplement; main text 62), read-out: Late stage IC50 (Luciferase 72 h)) was 171 nM.
